Assay results from patent publication EP0038629A1, “Virazole derivatives, process for their preparation and use as antiviral agents” (priority 1980, dated 1981).
Like-named read-outs stand apart in the source and are kept apart here. Marks after values point to notes of the source that are not given here.

Tested on: mouse adapted strain of the A2/HK/l/68 virus
Settings: 10^-4 mole/kg doses twice daily for 3 days; for Weight Change Day 0 -Day 3: dosing period, indication of toxicity

1-[β-D-(5'-succinyl-2',3'-carbonyl)ribofuranosyl]-3-carbamoyl-1,2,4-triazole amantadine salt [Compound 6]
Day 8 Means Body Wt. (Expt. 1, subcutaneous): 22.4 gm | Day 8 Means Lung WT./ Body Wt. Ratio x 100 (Expt. 1, subcutaneous): 1.25 | Day 8 Means Lung Wt. (Expt. 1, subcutaneous): 273 mg | Weight Change Day 3 -Day 8 (Expt. 1, subcutaneous): +0.9 | Weight Change Day 0 -Day 3 (Expt. 1, subcutaneous): +2.4 | Day 8 Means Body Wt. (Expt. 2, subcutaneous): 21.2 gm | Day 8 Means Lung WT./ Body Wt. Ratio x 100 (Expt. 2, subcutaneous): 1.30** | Day 8 Means Lung Wt. (Expt. 2, subcutaneous): 266 mg | Weight Change Day 3 -Day 8 (Expt. 2, subcutaneous): +0.4 | Weight Change Day 0 -Day 3 (Expt. 2, subcutaneous): +2.1 | Day 8 Means Body Wt. (Expt. 3, oral): 22.5 gm | Day 8 Means Lung WT./ Body Wt. Ratio x 100 (Expt. 3, oral): 1.25** | Day 8 Means Lung Wt. (Expt. 3, oral): 275 mg | Weight Change Day 3 -Day 8 (Expt. 3, oral): +0.7 | Weight Change Day 0 -Day 3 (Expt. 3, oral): +2.6

NC(=O)c1ncn([C@@H]2O[C@H](CO)[C@@H](O)[C@H]2O)n1 [Compound 1, 1-β-D-ribofuranosyl-3-carbamoyl-1,2,4-triazole, reference compound]
Day 8 Means Body Wt. (Expt. 1, subcutaneous): 20.7 gm | Day 8 Means Lung WT./ Body Wt. Ratio x 100 (Expt. 1, subcutaneous): 1.16 | Day 8 Means Lung Wt. (Expt. 1, subcutaneous): 238 mg | Weight Change Day 3 -Day 8 (Expt. 1, subcutaneous): +0.8 | Weight Change Day 0 -Day 3 (Expt. 1, subcutaneous): +0.7* | Day 8 Means Body Wt. (Expt. 2, subcutaneous): 20.5 gm | Day 8 Means Lung WT./ Body Wt. Ratio x 100 (Expt. 2, subcutaneous): 1.36 | Day 8 Means Lung Wt. (Expt. 2, subcutaneous): 291 mg | Weight Change Day 3 -Day 8 (Expt. 2, subcutaneous): +1.8 | Weight Change Day 0 -Day 3 (Expt. 2, subcutaneous): +0.2* | Day 8 Means Body Wt. (Expt. 3, oral): 19.1 gm | Day 8 Means Lung WT./ Body Wt. Ratio x 100 (Expt. 3, oral): 1.40** | Day 8 Means Lung Wt. (Expt. 3, oral): 285 mg | Weight Change Day 3 -Day 8 (Expt. 3, oral): -0.8 | Weight Change Day 0 -Day 3 (Expt. 3, oral): +0.9*
